Values quoted from earlier work, collected in patent publication US20090123956A1, “Measurement of the oxidants-antioxidants balance in liquids” (Samsung Electronics Co., Ltd., priority 2006, published 2009).

Settings: change in absorbance at 450 nm (reference 620 or 570 nm) at equivalent molar concentration, uric acid = 1

Row | SMILES | relative activity in compare with uric acid
1 | N[C@@H](CCC(=O)N[C@@H](CS)C(=O)NCC(=O)O)C(=O)O [GSH] | about 1
2 | Cc1c(C)c2c(c(C)c1O)CCC(C)(C(=O)O)O2 (stereo not drawn) [Trolox] | about 1
3 | O=C1O[C@H]([C@@H](O)CO)C(O)=C1O [vitamin C] | about 1
